Reference: patent US9334256B2, “Agents and methods for treating ischemic and other diseases” (NoNO INC., priority 2011, dated 2016)

Biological target: T1, TRPM7 (Mus musculus, UniProt Q923J1)
T1 construct: expressed in transfected cells; host or cells: HEK-293 tSA (HEK-293T) cells, transient transfection with Lipofectamine 2000
Assay: PI uptake cell death assay in TRPM7-expressing HEK-293 cells (type of assay from Example 1)
Format: cell-based, murine
Details: 5 μM; Table Y, commercially available compounds
Text: The TRPM7 channel provides a pathway for mono- and divalent cations into the cell, and is unique in that it contains a functional C-terminal α-kinase domain. […] The induction of chemical anoxia in host cells such as recombinant HEK293 cells can be used to activate TRPM7. This activation is detectable with the use measurements of cellular calcium accumulation. This is achievable with the use of a fluorescent calcium indicator. Alternatively, this activation can also be measured using radiolabelled Ca2+ (^45Ca^2+) as described previously by Sattler et al. (Sattler et al., 1998) and Aarts et al. (Aarts et al., 2003).
Hoechst 33342 was purchased as a 10 mg/mL solution in water (Molecular Probes Inc., Eugene, Oreg.). Propidium iodide (PI) was purchased as a powder and prepared by dissolving in PBS at 1 mg/mL. PI solutions were stored at 4° C. until use. Hoechst and PI were added directly to cell culture to 5 μg/mL and 10 μg/mL respectively. Cells were incubated at room temperature or at 37° C. for 10 minutes to allow for adequate uptake, and fluorescence observed using a NIKON Eclipse TE2000 inverted microscope and TE-FM Epi-Fluorescence attachment (Nikon Canada).
Untransfected cells or cells transfected with the TRPM7/pTracer or ΔPDZ/pTracer construct were plated onto 24-well plates, 24-hours post-transfection. Untransfected cells were plated at 0.75×10^6 cells/well and transfected cells at 1×10^6 cells/well. The plates were coated with poly-D-lysine to strengthen cell adhesion and to minimize cell loss during washes. Cells were loaded by incubation with 5 μM fluo-3 AM and 0.02% pluronic in HBSS at 37° C. for 30 minutes. Following loading, cells were washed with an aglycaemic HBSS containing, in mM: 20 N-methyl-D-glucamine (NMDG), 121 NaCl, 5 KCl, 10 HEPES acid, 10 HEPES-Na salt, 3 NaHCO3, 1 Na-pyruvate, and 1.8 CaCl2, pH adjusted to 7.4 with HCl. Calcium uptake, as assessed by fluo-3 fluorescence, was measured in response to 0, 5, 10, 15, 20, or 25 mM sodium cyanide (NaCN; Mallinckrodt Baker Inc., Phillipsburg, N.J.) dissolved in aglycaemic HBSS. A 250 mM NaCN stock was prepared in water and stored at room temperature for up to 2 weeks. Measurements of fluo-3 fluorescence were taken over a 2 hour period at 10 minutes intervals at room temperature (22-25° C.). Calcium uptake assays were performed 48 hours post-transfection.
Cell death, as assessed by PI uptake, was examined at the end of the 2 hour calcium uptake assay. Cells were stained with 10 μg/mL PI and PI fluorescence measured using the Fluoroskan microplate reader (λ excitation=590 nm, λ emission=630 nm) and accompanying Ascent software (Thermo Electron Corp.). To obtain a reading of maximal fluorescence (Fmax), 0.5% Triton X-100 was added to each well and allowed to incubate for 20 minutes. Cell death assays were performed 48 hours post-transfection.
Data was entered into Excel (Microsoft, Seattle, Wash.) or SigmaPlot (SPSS Inc., Chicago, Ill.) for analysis. Pooled data are presented as the mean of at least 3 separate experiments±sem. Calcium uptake is expressed as a fraction of baseline uptake: ΔFt=(Ft−Fo)/Fo where Ft is the fluorescence at time t, and Fo is the fluorescence at baseline. Cell death is expressed as a percentage of total cell death: cell death (%)=Ft/Fmax×100 where Ft is the fluorescence at time t and Fmax is the maximal fluorescence obtained by permeabilization with Triton X-100. Concentration-response curves were fit by nonlinear regression with a 4 parameter logistic curve represented by the following equation: y=min+{(max−min)/[1+(x/EC50)n]} where y is the response at concentration x, min is the minimal response, max is the maximal response, EC50 is the concentration required for half-maximal response, and n is the Hill slope. Statistical analysis of data was carried out with a two-tailed Student's t test, or a one-way analysis of variance (ANOVA) followed by post hoc pairwise multiple comparisons testing using the Holm-Sidak method, where appropriate. […]

T1 sequence (Q923J1 whole entry): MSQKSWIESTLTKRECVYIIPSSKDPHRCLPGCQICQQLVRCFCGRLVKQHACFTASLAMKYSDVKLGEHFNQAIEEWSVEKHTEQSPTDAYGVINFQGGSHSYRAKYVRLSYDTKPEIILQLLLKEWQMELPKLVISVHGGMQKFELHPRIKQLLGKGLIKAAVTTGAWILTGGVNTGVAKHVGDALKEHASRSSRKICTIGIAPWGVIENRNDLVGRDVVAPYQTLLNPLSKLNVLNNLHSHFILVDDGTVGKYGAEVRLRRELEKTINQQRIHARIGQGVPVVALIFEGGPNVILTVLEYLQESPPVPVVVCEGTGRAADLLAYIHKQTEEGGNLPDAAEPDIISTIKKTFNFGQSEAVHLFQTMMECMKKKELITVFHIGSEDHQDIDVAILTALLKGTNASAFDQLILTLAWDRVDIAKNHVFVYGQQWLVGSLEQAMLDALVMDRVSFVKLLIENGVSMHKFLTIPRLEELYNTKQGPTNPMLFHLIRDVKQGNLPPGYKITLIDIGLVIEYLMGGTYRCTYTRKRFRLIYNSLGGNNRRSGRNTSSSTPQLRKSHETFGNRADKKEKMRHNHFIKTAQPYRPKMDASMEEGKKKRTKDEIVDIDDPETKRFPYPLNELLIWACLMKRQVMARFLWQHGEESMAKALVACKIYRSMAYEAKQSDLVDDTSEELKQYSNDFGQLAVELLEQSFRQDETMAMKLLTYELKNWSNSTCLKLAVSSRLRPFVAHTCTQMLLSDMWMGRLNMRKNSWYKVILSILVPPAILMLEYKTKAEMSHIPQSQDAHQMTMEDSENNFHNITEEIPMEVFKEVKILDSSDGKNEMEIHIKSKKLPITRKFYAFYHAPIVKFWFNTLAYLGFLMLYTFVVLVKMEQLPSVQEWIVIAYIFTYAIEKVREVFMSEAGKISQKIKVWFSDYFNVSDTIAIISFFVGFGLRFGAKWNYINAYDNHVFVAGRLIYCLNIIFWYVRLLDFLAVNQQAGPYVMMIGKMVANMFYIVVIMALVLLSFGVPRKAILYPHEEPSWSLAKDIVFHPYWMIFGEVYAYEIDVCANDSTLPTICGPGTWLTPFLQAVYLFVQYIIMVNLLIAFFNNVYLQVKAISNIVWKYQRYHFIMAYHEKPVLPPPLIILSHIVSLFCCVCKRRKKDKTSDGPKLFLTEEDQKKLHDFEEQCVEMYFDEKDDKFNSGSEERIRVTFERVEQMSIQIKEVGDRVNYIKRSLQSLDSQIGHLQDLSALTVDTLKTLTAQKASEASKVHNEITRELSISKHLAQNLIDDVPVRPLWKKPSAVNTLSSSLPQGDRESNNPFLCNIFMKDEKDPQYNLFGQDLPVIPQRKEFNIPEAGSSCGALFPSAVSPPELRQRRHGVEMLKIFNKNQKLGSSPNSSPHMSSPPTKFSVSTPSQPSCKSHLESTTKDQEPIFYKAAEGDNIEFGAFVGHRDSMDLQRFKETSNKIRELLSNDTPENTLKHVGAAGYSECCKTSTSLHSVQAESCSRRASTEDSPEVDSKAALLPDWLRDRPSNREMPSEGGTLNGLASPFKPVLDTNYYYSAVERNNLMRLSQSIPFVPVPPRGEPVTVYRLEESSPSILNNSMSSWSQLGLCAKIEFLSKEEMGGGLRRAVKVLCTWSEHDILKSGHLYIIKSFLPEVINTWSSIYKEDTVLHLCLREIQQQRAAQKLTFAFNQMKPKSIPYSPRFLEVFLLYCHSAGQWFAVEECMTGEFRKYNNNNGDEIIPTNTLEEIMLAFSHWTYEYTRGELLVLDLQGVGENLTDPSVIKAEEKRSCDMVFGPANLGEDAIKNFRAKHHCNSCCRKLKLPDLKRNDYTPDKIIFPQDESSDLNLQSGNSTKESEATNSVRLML

SMILES	Normalized ratio of PI uptake (5 μM)
O=C(c1sc2ccccc2c1Cl)N(Cc1ccccc1)c1ccccc1 [MCC1879 #5, reference compound]	0.108
Cc1c(Cc2c(Cl)cccc2Cl)c(=O)oc2cc(O)c(Cl)cc12 [RJF00028SC #11, reference compound]	0.233
CCCc1c(Cc2c(F)cccc2Cl)c(=O)oc2cc(O)ccc12 [RJF01538SC #14, reference compound]	0.16
Cc1c(Cc2ccc(F)cc2)c(=O)oc2cc(O)ccc12 [RJF01910SC #10, reference compound]	0.465
Cc1c(Cc2ccccc2)c(=O)oc2c(CN(C)C)c(O)ccc12 [STOCK1N- 36829 #3, reference compound]	0.262
Cc1c(Cc2ccccc2)c(=O)oc2cc(O)cc(O)c12 [STOCK1N- 70089 #1, reference compound]	0.181
CCN(CC)Cc1c(O)ccc2c(C)c(Cc3ccccc3)c(=O)oc12 [STOCK4S- 10213 #1, reference compound]	0.398
Cc1c(Cc2ccccc2)c(=O)oc2cc(O)c(Cl)cc12 [STOCK6S- 31467 #2, reference compound]	0.472
O=C(NC1CCOc2ccccc21)c1cc2ccccc2[nH]1 (stereo not drawn) [T6749380 #12, reference compound]	0.043
CC1c2ccsc2CCN1C(=O)c1c(Cl)c2ccccc2n1C (stereo not drawn) [T6857127 #7, reference compound]	0
CC1c2ccsc2CCN1C(=O)c1[nH]c2ccccc2c1Cl (stereo not drawn) [T6899791 #8, reference compound]	0

Same assay, conditions: 10 μM; Table Y, commercially available compounds

SMILES	Normalized ratio of PI uptake (10 μM)
O=C(c1sc2ccccc2c1Cl)N(Cc1ccccc1)c1ccccc1 [MCC1879 #5, reference compound]	0.062
Cc1c(Cc2c(Cl)cccc2Cl)c(=O)oc2cc(O)c(Cl)cc12 [RJF00028SC #11, reference compound]	0.136
CCCc1c(Cc2c(F)cccc2Cl)c(=O)oc2cc(O)ccc12 [RJF01538SC #14, reference compound]	0.057
Cc1c(Cc2ccc(F)cc2)c(=O)oc2cc(O)ccc12 [RJF01910SC #10, reference compound]	0.261
Cc1c(Cc2ccccc2)c(=O)oc2c(CN(C)C)c(O)ccc12 [STOCK1N- 36829 #3, reference compound]	0.102
Cc1c(Cc2ccccc2)c(=O)oc2cc(O)cc(O)c12 [STOCK1N- 70089 #1, reference compound]	0.005
CCN(CC)Cc1c(O)ccc2c(C)c(Cc3ccccc3)c(=O)oc12 [STOCK4S- 10213 #1, reference compound]	0.242
Cc1c(Cc2ccccc2)c(=O)oc2cc(O)c(Cl)cc12 [STOCK6S- 31467 #2, reference compound]	0.1
O=C(NC1CCOc2ccccc21)c1cc2ccccc2[nH]1 (stereo not drawn) [T6749380 #12, reference compound]	0.029
CC1c2ccsc2CCN1C(=O)c1c(Cl)c2ccccc2n1C (stereo not drawn) [T6857127 #7, reference compound]	0
CC1c2ccsc2CCN1C(=O)c1[nH]c2ccccc2c1Cl (stereo not drawn) [T6899791 #8, reference compound]	0

Same assay, conditions: Table Y, commercially available compounds

SMILES	IC50 [µM]
O=C(c1sc2ccccc2c1Cl)N(Cc1ccccc1)c1ccccc1 [MCC1879 #5, reference compound]	1.77
Cc1c(Cc2c(Cl)cccc2Cl)c(=O)oc2cc(O)c(Cl)cc12 [RJF00028SC #11, reference compound]	3.16
CCCc1c(Cc2c(F)cccc2Cl)c(=O)oc2cc(O)ccc12 [RJF01538SC #14, reference compound]	2.78
Cc1c(Cc2ccc(F)cc2)c(=O)oc2cc(O)ccc12 [RJF01910SC #10, reference compound]	4.15
Cc1c(Cc2ccccc2)c(=O)oc2c(CN(C)C)c(O)ccc12 [STOCK1N- 36829 #3, reference compound]	4.72
Cc1c(Cc2ccccc2)c(=O)oc2cc(O)cc(O)c12 [STOCK1N- 70089 #1, reference compound]	3.16
CCN(CC)Cc1c(O)ccc2c(C)c(Cc3ccccc3)c(=O)oc12 [STOCK4S- 10213 #1, reference compound]	4.3
Cc1c(Cc2ccccc2)c(=O)oc2cc(O)c(Cl)cc12 [STOCK6S- 31467 #2, reference compound]	12.6
O=C(NC1CCOc2ccccc21)c1cc2ccccc2[nH]1 (stereo not drawn) [T6749380 #12, reference compound]	2.8
CC1c2ccsc2CCN1C(=O)c1c(Cl)c2ccccc2n1C (stereo not drawn) [T6857127 #7, reference compound]	0.8
CC1c2ccsc2CCN1C(=O)c1[nH]c2ccccc2c1Cl (stereo not drawn) [T6899791 #8, reference compound]	0.7
